According to patent publication EP4745137A1 (Gluetacs Therapeutics (Shanghai) Co., Ltd., priority 2023, dated 2025):

How the values were obtained:
WEE1 = molecular target: T1, WEE1 (Homo sapiens, UniProt P30291+Q96SW2); test: Western-blot assay of substrate protein degradation in hPBMCs, WEE1; assay type: cell-based; conditions: 24 hours of compound treatment, compounds tested at 50 nM and 500 nM (concentration of the table not stated)
T1 construct: endogenous in cells; host or cells: hPBMCs (Milecell Biotechnologies)
T1 sequence (P30291 whole entry): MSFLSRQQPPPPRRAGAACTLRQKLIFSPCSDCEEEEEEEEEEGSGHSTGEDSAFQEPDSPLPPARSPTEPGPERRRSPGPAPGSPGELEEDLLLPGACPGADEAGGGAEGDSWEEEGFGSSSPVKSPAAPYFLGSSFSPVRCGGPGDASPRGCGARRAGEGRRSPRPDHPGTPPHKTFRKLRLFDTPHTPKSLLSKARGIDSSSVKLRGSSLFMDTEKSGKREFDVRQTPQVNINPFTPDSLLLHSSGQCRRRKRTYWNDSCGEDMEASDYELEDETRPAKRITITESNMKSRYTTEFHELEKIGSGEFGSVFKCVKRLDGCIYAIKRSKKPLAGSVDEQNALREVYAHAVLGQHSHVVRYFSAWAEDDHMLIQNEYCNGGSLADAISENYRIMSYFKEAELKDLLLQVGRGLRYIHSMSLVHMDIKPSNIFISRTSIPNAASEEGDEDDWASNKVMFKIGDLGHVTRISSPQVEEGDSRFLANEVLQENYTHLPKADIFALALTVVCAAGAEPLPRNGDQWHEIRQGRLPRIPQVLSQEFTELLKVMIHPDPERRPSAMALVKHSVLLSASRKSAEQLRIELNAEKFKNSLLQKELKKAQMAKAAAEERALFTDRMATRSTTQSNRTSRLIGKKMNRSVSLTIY
T1 sequence (Q96SW2 whole entry): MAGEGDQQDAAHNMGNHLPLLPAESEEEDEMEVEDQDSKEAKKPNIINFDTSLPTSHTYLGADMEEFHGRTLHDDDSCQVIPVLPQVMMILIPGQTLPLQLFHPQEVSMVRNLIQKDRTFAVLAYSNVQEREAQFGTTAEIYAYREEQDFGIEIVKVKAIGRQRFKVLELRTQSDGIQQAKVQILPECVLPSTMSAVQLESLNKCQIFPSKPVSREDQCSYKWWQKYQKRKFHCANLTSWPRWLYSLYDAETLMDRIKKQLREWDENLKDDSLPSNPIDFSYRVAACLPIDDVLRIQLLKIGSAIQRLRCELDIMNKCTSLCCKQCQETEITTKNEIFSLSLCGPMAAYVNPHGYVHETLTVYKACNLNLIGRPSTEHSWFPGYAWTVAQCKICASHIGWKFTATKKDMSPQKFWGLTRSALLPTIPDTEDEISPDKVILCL
T1 sequence (Q16531 whole entry partner): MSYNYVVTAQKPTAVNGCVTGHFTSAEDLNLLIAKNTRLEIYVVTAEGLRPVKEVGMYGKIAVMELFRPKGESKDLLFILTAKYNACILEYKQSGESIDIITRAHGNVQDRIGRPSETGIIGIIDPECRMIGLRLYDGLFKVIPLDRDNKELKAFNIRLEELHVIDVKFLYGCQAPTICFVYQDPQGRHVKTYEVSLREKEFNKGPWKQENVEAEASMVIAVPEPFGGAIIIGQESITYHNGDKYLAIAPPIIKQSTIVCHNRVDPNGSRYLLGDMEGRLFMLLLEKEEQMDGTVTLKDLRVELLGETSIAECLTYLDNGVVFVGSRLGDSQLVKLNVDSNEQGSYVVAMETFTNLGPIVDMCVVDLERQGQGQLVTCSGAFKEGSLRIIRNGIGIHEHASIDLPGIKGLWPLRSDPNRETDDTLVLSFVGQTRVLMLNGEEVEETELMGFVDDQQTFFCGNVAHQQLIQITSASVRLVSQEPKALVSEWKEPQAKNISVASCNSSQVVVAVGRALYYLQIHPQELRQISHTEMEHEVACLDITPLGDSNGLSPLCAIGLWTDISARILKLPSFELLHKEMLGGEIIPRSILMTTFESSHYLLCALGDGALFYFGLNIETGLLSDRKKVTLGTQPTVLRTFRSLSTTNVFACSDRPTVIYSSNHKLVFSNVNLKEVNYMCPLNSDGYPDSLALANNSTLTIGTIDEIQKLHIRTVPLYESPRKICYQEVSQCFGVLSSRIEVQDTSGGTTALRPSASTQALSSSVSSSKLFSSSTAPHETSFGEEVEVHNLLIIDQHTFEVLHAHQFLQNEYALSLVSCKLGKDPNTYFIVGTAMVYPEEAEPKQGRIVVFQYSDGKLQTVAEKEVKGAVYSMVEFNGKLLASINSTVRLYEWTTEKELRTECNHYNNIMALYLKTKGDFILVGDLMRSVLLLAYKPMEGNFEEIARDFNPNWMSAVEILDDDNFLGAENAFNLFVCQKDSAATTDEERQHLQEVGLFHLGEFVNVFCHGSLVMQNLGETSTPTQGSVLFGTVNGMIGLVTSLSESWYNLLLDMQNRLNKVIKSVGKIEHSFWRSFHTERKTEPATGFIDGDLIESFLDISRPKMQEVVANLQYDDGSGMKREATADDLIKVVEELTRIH

IKZF1 = molecular target: T2, IKZF1 (Homo sapiens, UniProt Q13422+Q96SW2); test: Western-blot assay of substrate protein degradation in hPBMCs, IKZF1; assay type: cell-based; conditions: 24 hours of compound treatment, compounds tested at 50 nM and 500 nM (concentration of the table not stated)
T2 construct: endogenous in cells; host or cells: hPBMCs (Milecell Biotechnologies)
T2 sequence (Q13422 whole entry): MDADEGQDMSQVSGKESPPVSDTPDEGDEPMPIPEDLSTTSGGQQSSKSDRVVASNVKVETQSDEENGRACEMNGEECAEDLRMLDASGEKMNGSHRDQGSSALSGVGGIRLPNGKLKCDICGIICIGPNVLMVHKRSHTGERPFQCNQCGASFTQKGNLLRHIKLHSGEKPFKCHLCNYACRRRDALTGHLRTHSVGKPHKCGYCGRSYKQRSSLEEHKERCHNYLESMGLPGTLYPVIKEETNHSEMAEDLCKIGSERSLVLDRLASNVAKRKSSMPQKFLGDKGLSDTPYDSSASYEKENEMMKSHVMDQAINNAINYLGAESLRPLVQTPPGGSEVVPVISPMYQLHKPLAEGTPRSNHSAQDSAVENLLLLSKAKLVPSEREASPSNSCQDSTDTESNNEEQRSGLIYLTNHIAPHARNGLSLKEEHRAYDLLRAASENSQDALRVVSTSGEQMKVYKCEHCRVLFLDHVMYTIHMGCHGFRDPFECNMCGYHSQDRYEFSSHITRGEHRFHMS
T2 sequence (Q96SW2 whole entry): as the sequence (Q96SW2 whole entry) above
T2 sequence (Q16531 whole entry partner): as the sequence (Q16531 whole entry partner) above

IKZF2 = molecular target: T3, IKZF2 (Homo sapiens, UniProt Q96SW2+Q9UKS7); test: Western-blot assay of substrate protein degradation in hPBMCs, IKZF2; assay type: cell-based; conditions: 24 hours of compound treatment, compounds tested at 50 nM and 500 nM (concentration of the table not stated)
T3 construct: endogenous in cells; host or cells: hPBMCs (Milecell Biotechnologies)
T3 sequence (Q9UKS7 whole entry): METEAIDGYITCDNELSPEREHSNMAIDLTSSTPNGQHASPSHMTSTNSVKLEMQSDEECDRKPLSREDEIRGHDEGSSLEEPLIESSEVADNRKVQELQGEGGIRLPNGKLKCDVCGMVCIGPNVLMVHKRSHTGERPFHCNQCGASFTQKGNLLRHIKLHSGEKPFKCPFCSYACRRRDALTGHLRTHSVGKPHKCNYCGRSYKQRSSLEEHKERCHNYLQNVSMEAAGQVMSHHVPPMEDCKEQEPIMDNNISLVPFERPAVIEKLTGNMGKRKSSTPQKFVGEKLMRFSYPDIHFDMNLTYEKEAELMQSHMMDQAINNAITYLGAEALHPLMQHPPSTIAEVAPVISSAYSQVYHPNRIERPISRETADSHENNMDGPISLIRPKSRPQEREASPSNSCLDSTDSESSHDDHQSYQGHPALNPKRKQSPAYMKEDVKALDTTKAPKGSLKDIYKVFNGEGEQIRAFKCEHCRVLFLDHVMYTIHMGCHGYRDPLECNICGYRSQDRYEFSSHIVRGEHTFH
T3 sequence (Q96SW2 whole entry): as the sequence (Q96SW2 whole entry) above
T3 sequence (Q16531 whole entry partner): as the sequence (Q16531 whole entry partner) above

IKZF3 = molecular target: T4, IKZF3 (Homo sapiens, UniProt Q96SW2+Q9UKT9); test: Western-blot assay of substrate protein degradation in hPBMCs, IKZF3; assay type: cell-based; conditions: 24 hours of compound treatment, compounds tested at 50 nM and 500 nM (concentration of the table not stated)
T4 construct: endogenous in cells; host or cells: hPBMCs (Milecell Biotechnologies)
T4 sequence (Q9UKT9 whole entry): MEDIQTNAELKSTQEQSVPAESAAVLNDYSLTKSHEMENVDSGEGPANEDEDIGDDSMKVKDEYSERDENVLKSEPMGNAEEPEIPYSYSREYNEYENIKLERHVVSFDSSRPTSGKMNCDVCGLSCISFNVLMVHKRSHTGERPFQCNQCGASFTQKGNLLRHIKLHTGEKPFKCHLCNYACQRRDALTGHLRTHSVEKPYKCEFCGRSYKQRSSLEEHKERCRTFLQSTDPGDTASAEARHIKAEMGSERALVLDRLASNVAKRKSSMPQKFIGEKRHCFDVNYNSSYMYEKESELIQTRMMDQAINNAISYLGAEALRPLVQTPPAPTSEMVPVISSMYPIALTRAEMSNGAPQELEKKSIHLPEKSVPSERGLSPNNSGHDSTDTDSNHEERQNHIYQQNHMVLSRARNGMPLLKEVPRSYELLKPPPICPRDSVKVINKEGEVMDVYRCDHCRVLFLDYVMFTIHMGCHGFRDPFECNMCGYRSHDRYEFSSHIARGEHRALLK
T4 sequence (Q96SW2 whole entry): as the sequence (Q96SW2 whole entry) above
T4 sequence (Q16531 whole entry partner): as the sequence (Q16531 whole entry partner) above

CK1α = molecular target: T5, CK1α (Homo sapiens, UniProt P48729+Q96SW2); test: Western-blot assay of substrate protein degradation in hPBMCs, CK1α; assay type: cell-based; conditions: 24 hours of compound treatment, compounds tested at 50 nM and 500 nM (concentration of the table not stated)
T5 construct: endogenous in cells; host or cells: hPBMCs (Milecell Biotechnologies)

GSPT1 = molecular target: T6, GSPT1 (Homo sapiens, UniProt P15170+Q96SW2); test: Western-blot assay of substrate protein degradation in hPBMCs, GSPT1; assay type: cell-based; conditions: 24 hours of compound treatment, compounds tested at 50 nM and 500 nM (concentration of the table not stated)
T6 construct: endogenous in cells; host or cells: hPBMCs (Milecell Biotechnologies)
T6 sequence (P15170 whole entry): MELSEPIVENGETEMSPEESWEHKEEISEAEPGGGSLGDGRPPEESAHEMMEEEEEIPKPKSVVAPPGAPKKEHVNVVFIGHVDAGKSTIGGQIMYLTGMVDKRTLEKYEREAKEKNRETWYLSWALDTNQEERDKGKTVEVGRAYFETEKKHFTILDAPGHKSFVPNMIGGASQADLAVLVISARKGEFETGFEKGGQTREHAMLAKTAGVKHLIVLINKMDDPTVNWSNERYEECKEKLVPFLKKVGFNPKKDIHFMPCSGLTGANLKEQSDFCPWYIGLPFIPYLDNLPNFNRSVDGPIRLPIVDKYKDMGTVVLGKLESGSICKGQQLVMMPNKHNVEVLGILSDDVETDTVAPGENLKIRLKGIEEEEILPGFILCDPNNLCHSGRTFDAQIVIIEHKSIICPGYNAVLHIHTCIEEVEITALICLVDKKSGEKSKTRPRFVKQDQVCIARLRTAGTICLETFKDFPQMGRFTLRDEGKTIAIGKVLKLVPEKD
T6 sequence (Q96SW2 whole entry): as the sequence (Q96SW2 whole entry) above
T6 sequence (Q16531 whole entry partner): as the sequence (Q16531 whole entry partner) above

[1] = molecular target: T7, human Cereblon WT GST-tagged protein (Homo sapiens, UniProt Q96SW2); test: CRBN-binding affinity by HTRF (CEREBLON BINDING kit); conditions: HTRF inhibitory activity, CEREBLON BINDING kit; read-out: HTRF IC50
T7 construct: purchased CISBIO 64BDCRBNPEH
T7 sequence (Q96SW2 whole entry): as the sequence (Q96SW2 whole entry) above

## O=C1CCC(N2Cc3cc(CN4CCC(c5ncnc6sc7c(c56)CCCC7)CC4)ccc3C2=O)C(=O)N1 (centres unmarked) [GT-05265, 3-(1-oxo-5-((4-(5,6,7,8-tetrahydrobenzo[4,5]thieno[2,3-d]pyrimidin-4-yl)piperidin-1-yl)methyl)isoindolin-2-yl)piperidine-2,6-dione]
WEE1
  Weel substrate protein remaining %: B (80%< substrate protein remaining %≤ 100%)
IKZF1
  IKZF 1 substrate protein remaining %: A (0% ≤ substrate protein remaining % ≤ 80%)
IKZF2
  IKZF2 substrate protein remaining %: A (0% ≤ substrate protein remaining % ≤ 80%)
IKZF3
  IKZF3 substrate protein remaining %: A (0% ≤ substrate protein remaining % ≤ 80%)
CK1α
  CK1a substrate protein remaining %: A (0% ≤ substrate protein remaining % ≤ 80%)
GSPT1
  GSPT1 substrate protein remaining %: A (0% ≤ substrate protein remaining % ≤ 80%)
[1]
  IC50: < 500 nM

## Cc1nc(N2CCN(Cc3ccc4c(c3)CN(C3CCC(=O)NC3=O)C4=O)CC2)c2ccsc2n1 (centres unmarked) [GT-04693, 3-(5-((4-(2-methylthieno[2,3-d]pyrimidin-4-yl)piperazin-1-yl)methyl)-1-oxoisoindolin-2-yl)piperidine-2,6-dione]
WEE1
  Weel substrate protein remaining %: A (0% ≤ substrate protein remaining % ≤ 80%)
IKZF1
  IKZF 1 substrate protein remaining %: B (80%< substrate protein remaining %≤ 100%)
IKZF2
  IKZF2 substrate protein remaining %: A (0% ≤ substrate protein remaining % ≤ 80%)
IKZF3
  IKZF3 substrate protein remaining %: A (0% ≤ substrate protein remaining % ≤ 80%)
CK1α
  CK1a substrate protein remaining %: B (80%< substrate protein remaining %≤ 100%)
GSPT1
  GSPT1 substrate protein remaining %: A (0% ≤ substrate protein remaining % ≤ 80%)
[1]
  IC50: < 500 nM

## O=C1CCC(N2Cc3cc(CN4CCN(c5ncnc6sc(-c7ccccc7)cc56)CC4)ccc3C2=O)C(=O)N1 (centres unmarked) [GT-04862, 3-(1-oxo-5-((4-(6-phenylthieno[2,3-d]pyrimidin-4-yl)piperazin-1-yl)methyl)isoindolin-2-yl)piperidine-2,6-dione]
WEE1
  Weel substrate protein remaining %: A (0% ≤ substrate protein remaining % ≤ 80%)
IKZF1
  IKZF 1 substrate protein remaining %: A (0% ≤ substrate protein remaining % ≤ 80%)
IKZF2
  IKZF2 substrate protein remaining %: A (0% ≤ substrate protein remaining % ≤ 80%)
IKZF3
  IKZF3 substrate protein remaining %: A (0% ≤ substrate protein remaining % ≤ 80%)
CK1α
  CK1a substrate protein remaining %: A (0% ≤ substrate protein remaining % ≤ 80%)
GSPT1
  GSPT1 substrate protein remaining %: A (0% ≤ substrate protein remaining % ≤ 80%)
[1]
  IC50: < 500 nM

## O=C1CCC(N2Cc3cc(CN4CCC(=C5CCOc6cc(F)ccc65)CC4)ccc3C2=O)C(=O)N1 (centres unmarked) [GT-04649, 3-(5-((4-(7-fluorochroman-4-ylidene)piperidin-1-yl)methyl)-1-oxoisoindolin-2-yl)piperidine-2,6-dione]
WEE1
  Weel substrate protein remaining %: B (80%< substrate protein remaining %≤ 100%)
IKZF1
  IKZF 1 substrate protein remaining %: A (0% ≤ substrate protein remaining % ≤ 80%)
IKZF2
  IKZF2 substrate protein remaining %: A (0% ≤ substrate protein remaining % ≤ 80%)
IKZF3
  IKZF3 substrate protein remaining %: A (0% ≤ substrate protein remaining % ≤ 80%)
CK1α
  CK1a substrate protein remaining %: B (80%< substrate protein remaining %≤ 100%)
GSPT1
  GSPT1 substrate protein remaining %: A (0% ≤ substrate protein remaining % ≤ 80%)
[1]
  IC50: < 500 nM

## Cc1ccsc1C1=CCN(Cc2cccc3c2CN(C2CCC(=O)NC2=O)C3=O)CC1 (centres unmarked) [GT-04728, 3-(4-((4-(3-methylthiophen-2-yl)-3,6-dihydropyridin-1(2H)-yl)methyl)-1-oxoisoindolin-2-yl)piperidine-2,6-dione]
WEE1
  Weel substrate protein remaining %: B (80%< substrate protein remaining %≤ 100%)
IKZF1
  IKZF 1 substrate protein remaining %: B (80%< substrate protein remaining %≤ 100%)
IKZF2
  IKZF2 substrate protein remaining %: B (80%< substrate protein remaining %≤ 100%)
IKZF3
  IKZF3 substrate protein remaining %: B (80%< substrate protein remaining %≤ 100%)
CK1α
  CK1a substrate protein remaining %: B (80%< substrate protein remaining %≤ 100%)
GSPT1
  GSPT1 substrate protein remaining %: A (0% ≤ substrate protein remaining % ≤ 80%)
[1]
  IC50: 1000 to 1500 nM
